Experimental findings from patent publication US11390637B2, “Salts of antiviral phosphonate analogues and process for preparation thereof” (CIPLA LIMITED, priority 2017, dated 2022) are described below.

Data set [1] is described as follows: Solubility in physiologically acceptable solvents (statement, no method described). As to conditions: in words.
A short description of data set [2]: Hygroscopicity (statement, no method described). As to conditions: in words. In kind it is physicochemical.
Data set [3] in a line: In-vitro intrinsic dissolution of 200 mg pellets of API without excipients. It counts as physicochemical. To be noted: for % release of Compound (I) from the respective Salts: Table 8, 200 mg pellet, 0.01N HCl, 37° C., paddle 75 rpm. The protocol: A tableting mixture (200 mg) comprising solely salts of (((1-(6-amino-9H-purin-9-yl)propan-2-yloxy)methyl) (phenoxy) phosphoryloxy) methyl pivalate-prepared according to any one of the examples 1 to 10 (i.e. with no excipients) was prepared and compressed to a pellet using an automatic KBR press operating at a compression pressure of 2 tones for 2 minutes.
Similarly a tableting mixture (200 mg) comprising a solely TAF (i.e. with no excipients) was prepared and compressed to a pellet using an automatic KBR press operating at a compression pressure of 2 tones for 2 minutes.
A tableting mixture (200 mg) comprising solely TDF (i.e. with no excipients) was prepared and compressed to a pellet using an automatic KBR press operating at a compression pressure of 2 tones for 2 minutes.
In-vitro dissolution studies were performed on the 200 mg pellet in a LAB INDIA DISSO 2000.
The pellet was fixed in a PFTE holder, such that only the pellet surface came into contact with the dissolution medium. The PFTE loaded holder was placed in the dissolution vessel containing 900 ml of 0.1M of HCl having […] at 37±0.5° C. Two pellets were measured for each run of the design of the experiments. Stirring was performed with a paddle rotating at 75 rpm. […]
Dissolution Media: 0.01N HCl
Bath temperature: 37.5° C.
Sample Preparation: Pellets were prepared by pressing sample with 2 ton pressure for 2 min
Note: Aliquots were analysed on HPLC.
The concentration of (((1-(6-amino-9H-purin-9-yl)propan-2-yloxy)methyl) (phenoxy) phosphoryloxy) methyl pivalate was quantified by HPLC UV method at a maximum wavelength of 300 nm under the conditions as specified below:
Standard Preparation: 25 mg standard dissolved to 25 ml with dissolution medium. 5 ml of this solution diluted to 25 ml with dissolution medium. Further 5 ml of this solution was diluted to 10 ml with diluent.
Sample Preparation: 200 mg of Sample pellets were prepared and subjected to dissolution. 10 ml of Aliquot was removed from the dissolution basket at predetermined time intervals. 5 ml of these aliquot was diluted to 10 ml with Diluent.
200 mg of input API of fumarate salt of (((1-(6-amino-9H-purin-9-yl)propan-2-yloxy)methyl) (phenoxy) phosphoryloxy) methyl pivalate used for pellet preparation.
The percentage of (((1-(6-amino-9H-purin-9-yl)propan-2-yloxy)methyl) (phenoxy) phosphoryloxy) methyl pivalate (TD), Tenofovir Alafenamide (TAF) and Tenofovir Disoproxil (TDF) released from the respective fumarate salt tablet were plotted against time as shown in FIG. 19. The intrinsic dissolution rate was derived from the slope of this curve.
To measure the intrinsic dissolution of the Salts of (((1-(6-amino-9H-purin-9-yl)propan-2-yloxy)methyl) (phenoxy) phosphoryloxy) methyl pivalate, samples were measured to compare the influence of the different parameter settings. At appropriate time intervals, an automated sample collector removes aliquots from the dissolution medium for analysis. The time interval for sampling can vary, for example, from 5 to 120 minutes, depending on the properties of the drug and dissolution medium used. Suitable dissolution equipment for these operations includes LAB INDIA DISSO 2000. Bath temperature—37.5° C.
200 mg of input API of each fumarate, oxalate, phosphate, citrate, succinate and tartrate Salts of (((1-(6-amino-9H-purin-9-yl)propan-2-yloxy)methyl) (phenoxy) phosphoryloxy) methyl pivalate used for pellet preparation.
The percentage of (((1-(6-amino-9H-purin-9-yl)propan-2-yloxy)methyl) (phenoxy) phosphoryloxy) methyl pivalate released from the respective salts tablet were plotted against time as shown in FIG. 20. The intrinsic dissolution rate was derived from the slope of this curve.

As to `CC(Cn1cnc2c(N)ncnc21)OCP(=O)(OCOC(=O)C(C)(C)C)Oc1ccccc1.O=P(O)(O)O` (stereo not drawn) [Phosphate, (((1-(6-amino-9H-purin-9-yl)propan-2-yloxy)methyl) (phenoxy)phosphoryloxy) methyl pivalate phosphoric acid salt], the “solubility in physiologically acceptable solvents” value in data set [1] is recorded as “readily soluble”. Also, the hygroscopicity entry in data set [2] is on record as “not hygroscopic”. Also, the “% release of Compound (I) from the respective Salts” value (shortened to “% release of Compound (I)”) in data set [3] (5 min) is 19%; in data set [3] (15 min), 59%; in data set [3] (30 min) it was 103%; in data set [3] (45 min), 104%; in data set [3] (60 min) it was 105%; in data set [3] (90 min), 105%. For the same molecule, the “% release of Compound (I)” value in data set [3] (120 min) was determined as 106%; in data set [3] (150 min) it was 105%; in data set [3] (180 min), 104%; in data set [3] (210 min) it was 104%; in data set [3] (240 min) it was 105%. The “dissolution profile compared to other salts” value in data set [3] (in words, from the data of Table 8) is recorded as “fastest dissolution profile”.

Consider `CC(Cn1cnc2c(N)ncnc21)OCP(=O)(OCOC(=O)C(C)(C)C)Oc1ccccc1.O=C(O)CCC(=O)O` (stereo not drawn) [Succinate, (((1-(6-amino-9H-purin-9-yl)propan-2-yloxy)methyl) (phenoxy)phosphoryloxy) methyl pivalate succinic acid salt], for which, in data set [1], the “solubility in physiologically acceptable solvents” value is given as “readily soluble”. In addition, in data set [2], the hygroscopicity result is “not hygroscopic”. Moreover, the “% release of Compound (I)” value is given as 3% in data set [3] (5 min); 3% in data set [3] (15 min); 16% in data set [3] (30 min); 23% in data set [3] (45 min); 30% in data set [3] (60 min); 45% in data set [3] (90 min). Further, the “% release of Compound (I)” value in data set [3] (120 min) is on record as 59%; in data set [3] (150 min) it was 74%; in data set [3] (180 min), 85%; in data set [3] (210 min), 90%; in data set [3] (240 min) it was 92%.
